Read-outs that look alike come from different tables or passages of the source.

We go through 39 molecules from patent publication US8674113B2, “Compounds” (Boehringer Ingelheim International GmbH, priority 2010, dated 2014).

The target of the assay is mPGES-1 in A549 cells (Homo sapiens (Human), UniProt O14684). Put plainly: A549 cell-based assay (PGE2 formation, 50% human serum). The method, then: Although the enzymatic assay is a high throughput assay the disadvantage is that it uses a recombinant protein which is not in its natural environment. Accordingly a cellular assay was established in which a cell line of human origin (A549) expressing the mPGES-1 protein was used. In addition in order to mimic the situation in humans in which compounds can be bound to plasma proteins 50% human serum is added in the assay.
mPGES-1 in A549 cells, sequence (O14684 whole entry): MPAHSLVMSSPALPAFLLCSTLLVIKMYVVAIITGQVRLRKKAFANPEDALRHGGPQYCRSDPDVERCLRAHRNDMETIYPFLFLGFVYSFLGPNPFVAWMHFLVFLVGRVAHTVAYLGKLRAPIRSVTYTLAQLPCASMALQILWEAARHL
A549 cells (ATCC: CCL-185) are grown to about 90% confluence in F-12K Nutrient Mixture (Kaighn's Mod. Gibco) containing 10% FBS in a humified incubator at 37° C. and 5% CO2. Cells were detached using Trypsin-EDTA. A549 cells were seeded in a 384-well collagene plate at a density of 7000 cells/well (50 μl) in F-12 medium containing 1% Penicillin-Streptomycin and 50% human serum. The cells were allowed to attach for 3-4 h. After that the cells were incubated for 20-24 h in F-12k medium supplemented with 50% human serum, 1% Penicillin-Streptomycin and containing IL-1β at a final concentration of 5 ng/ml as well as 10 nM arachidonic acid in the presence of a vehicle or a test compound. The total volume is 100 μl.
Concentrations of PGE2 in the cell free medium (10 μl) were measured using a commercially available HTRF kit from Cisbio (as described above). The PGE2 formation in the absence of test compound was taken as 100%.
IC50 values were derived from at 6-8 point titrations using conventional software.

Setting [1] is: IL-1β 5 ng/ml, 10 nM arachidonic acid, 20-24 h, read-out: mPGES-1 inhibitory effect IC50 in the cell assay.

Broadly, the IC50 is the point on the concentration scale where inhibition reaches its midpoint. On to `Cn1c(Nc2c(Cl)ccc(CNC(=O)C(C)(C)C)c2F)nc2cc(C(=O)N[C@H]3CC[C@H](C(F)(F)F)CC3)c(N3CCC(C(F)(F)F)C3)cc21` (stereo partly shown) [Example 6], for which the IC50 under setting [1] was found to be 4 nM. Still for that read-out and setting: under `Cn1c(Nc2c(Cl)ccc(CNC(=O)C(C)(C)C)c2Cl)nc2cc(C(=O)NC3CC(F)(F)C3)c(NCC(F)F)cc21` [Example 16] stands 197 nM.

On to `Cn1c(Nc2c(Cl)ccc(CNC(=O)C(C)(C)C)c2Cl)nc2cc(C(=O)N[C@H]3CC[C@H](C(F)(F)F)CC3)c(N3CCC(F)(F)C3)cc21` [Example 20, N-(trans-4-Trifluoromethyl-cyclohexyl)-2-{2,6-dichloro-3-[(2,2-dimethyl-propionylamino)-methyl]-phenylamino}-6-[3,3-difluoro-pyrrolidinyl]-1-methyl-1H-benzimidazole-5-carboxylic acid amide], for which the half-maximal inhibitory concentration (IC50) by setting is: under setting [1], 1 nM; (Table C comparison of selected benzimidazoles, read-out: Cell IC50) 1 nM. For the molecule `Cn1c(Nc2c(Cl)ccc(CNC(=O)C(C)(C)C)c2Cl)nc2cc(C(=O)N[C@H]3CC[C@H](C(F)(F)F)CC3)c(N3CCC(C(F)(F)F)CC3)cc21` [Example 52, N-(trans-4-Trifluoromethyl-cyclohexyl)-2-{2,6-dichloro-3-[(2,2-dimethyl-propionylamino)-methyl]-phenylamino}-6-[4-trifluoromethyl-piperidinyl]-1-methyl-1H-benzimidazole-5-carboxylic acid amide], the concentration for half-maximal inhibition (IC50) under setting [1] was less than 1 nM. `CC(C)(C)C(=O)NCc1ccc(Cl)c(Nc2nc3cc(C(=O)N[C@H]4CC[C@H](C(F)(F)F)CC4)c(N4CCOCC4)cc3n2CC(F)F)c1Cl` [Example 71, N-(trans-4-Trifluoromethyl-cyclohexyl)-2-{2,6-dichloro-3-[(2,2-dimethyl-propionylamino)-methyl]-phenylamino}-6-[morpholin-1-yl]-(2,2-difluoroethyl)-benzimidazole-5-carboxylic acid amide] registered an IC50 (mPGES-1 inhibitory effect IC50 in the cell assay, IL-1β 5 ng/ml, 10 nM arachidonic acid, 20-24 h) of less than 1 nM. Consider `CC(C)(C)C(=O)NCc1ccc(Cl)c(Nc2nc3cc(C(=O)Nc4ccc(OC(F)(F)F)cc4)c(N4CC[C@@H](F)C4)cc3n2CC(F)F)c1Cl` [Example 77, (R)—N-(4-Trifluoromethoxy-phenyl)-2-{2,6-dichloro-3-[(2,2-dimethyl-propionylamino)-methyl]-phenylamino}-6-[3-fluoro-pyrrolidinyl]-1-(2,2-difluorethyl)-1H-benzimidazole-5-carboxylic acid amide], for which, under setting [1], the IC50 was 2 nM. The same measure, in the same setting: under `CN(Cc1nnc[nH]1)c1cc2c(cc1C(=O)N[C@H]1CC[C@H](C(F)(F)F)CC1)nc(Nc1c(Cl)ccc(CNC(=O)C(C)(C)C)c1Cl)n2C` [Example 114] stands 3.5 nM.

For `Cc1n[nH]c(CN(C)c2cc3c(cc2C(=O)N[C@H]2CC[C@H](C(F)(F)F)CC2)nc(Nc2c(Cl)ccc(CNC(=O)C(C)(C)F)c2Cl)n3C)n1` [Example 115], under setting [1], the IC50 was found to be 2 nM. The same measure, in the same setting: under `CN(Cc1ncnn1C)c1cc2c(cc1C(=O)N[C@H]1CC[C@H](C(F)(F)F)CC1)nc(Nc1c(Cl)ccc(CNC(=O)C(C)(C)C)c1Cl)n2C` [Example 116] stands 80 nM.

With `Cn1c(Nc2c(Cl)ccc(CNC(=O)C(C)(C)F)c2Cl)nc2cc(C(=O)N[C@H]3CC[C@H](C(F)(F)F)CC3)c(N3CCC4(CC3)CC4)cc21` [Example 123], the concentration for half-maximal inhibition (IC50) under setting [1] turned out to be 1 nM.

Consider `Cn1c(Nc2c(Cl)ccc(CNC(=O)C(C)(C)F)c2Cl)nc2cc(C(=O)N[C@H]3CC[C@H](C(F)(F)F)CC3)c(N3CCC(C(C)(C)O)CC3)cc21` [Example 124], for which the half-inhibitory concentration (IC50) under setting [1] is 2 nM. Take `Cn1c(Nc2c(Cl)ccc(CNC(=O)C(C)(C)C)c2Cl)nc2cc(C(=O)N[C@H]3CC[C@H](C(F)(F)F)CC3)c(N3CCC(F)CC3)cc21` [Example 125]: the IC50 under setting [1] was 1.4 nM.

Regarding `Cn1c(Nc2c(Cl)ccc(CNC(=O)C(C)(C)F)c2Cl)nc2cc(C(=O)Nc3ccc(OC(F)(F)F)cc3)c(N3CCOCC3)cc21` [Example 142], the concentration for half-maximal inhibition (IC50) under setting [1] came out at 2 nM. Same read-out and setting: then `Cc1n[nH]c(CN(C)c2cc3c(cc2C(=O)Nc2ccc(OC(F)(F)F)cc2)nc(Nc2c(Cl)ccc(CNC(=O)C(C)(C)F)c2Cl)n3C)n1` [Example 143], with 2.6 nM; and `Cn1c(Nc2c(Cl)ccc(CNC(=O)C(C)(C)F)c2Cl)nc2cc(C(=O)N[C@H]3CC[C@H](C(F)(F)F)CC3)c(N3CCOCC3)cc21` [Example 146], with less than 1 nM; and `Cn1c(Nc2c(Cl)ccc(CNC(=O)C(C)(C)F)c2Cl)nc2cc(C(=O)NCCC(F)(F)F)c(N3CCC4(CC3)CC4)cc21` [Example 147], with 2 nM. The same measure, in the same setting: then `Cn1c(Nc2c(Cl)ccc(CNC(=O)C(C)(C)C)c2Cl)nc2cc(C(=O)NCC(F)(F)C(F)(F)F)c(N3CCC(F)CC3)cc21` [Example 151], with 1.4 nM; and `Cc1n[nH]c(CN(C)c2cc3c(cc2C(=O)NCC(F)(F)C(F)(F)F)nc(Nc2c(Cl)ccc(CNC(=O)C(C)(C)F)c2Cl)n3C)n1` [Example 152], with 17 nM. On the same count and under the same terms, under `Cn1c(Nc2c(Cl)ccc(CNC(=O)C(C)(C)F)c2Cl)nc2cc(C(=O)NCC(F)(F)C(F)(F)F)c(N3CCOCC3)cc21` [Example 153] stands 4.6 nM; under `Cn1c(Nc2c(Cl)ccc(CNC(=O)C(C)(C)C)c2Cl)nc2cc(C(=O)N[C@H]3CC[C@@H](C(F)(F)F)CC3)c(N3CC4CC4C3)cc21` (stereo partly shown) [Example 155], 6 nM. In the case of `Cn1c(Nc2c(Cl)ccc(CNC(=O)C(C)(C)C)c2Cl)nc2cc(C(=O)Nc3cc(C(C)(C)C)no3)c(N3CCC(C(F)(F)F)CC3)cc21` [Example 157], under setting [1], the IC50 came out at 1 nM. Consider `CC(C)(O)Cn1c(Nc2c(Cl)ccc(CNC(=O)C(C)(C)C)c2Cl)nc2cc(C(=O)Nc3ccc(OC(F)(F)F)cc3)c(N3CCC(C(F)(F)F)CC3)cc21` [Example 167], for which, under setting [1], the IC50 turned out to be 2.4 nM. On the same count and under the same terms, under `CC(C)(C)C(=O)NCc1ccc(Cl)c(Nc2nc3cc(C(=O)Nc4ccc(OC(F)(F)F)cc4)c(N4CCC(C(F)(F)F)CC4)cc3n2CCC(N)=O)c1Cl` [Example 169] stands 5 nM. On to `CC(C)(C)C(=O)NCc1ccc(Cl)c(Nc2nc3cc(C(=O)N[C@H]4CC[C@H](C(F)(F)F)CC4)c(N4CCOCC4)cc3n2CCC(N)=O)c1Cl` [Example 170], for which the IC50 under setting [1] was determined as 110 nM. Still for that read-out and setting: then `CC(C)(C)C(=O)NCc1ccc(Cl)c(Nc2nc3cc(C(=O)N[C@H]4CC[C@H](C(F)(F)F)CC4)c(N4CCC(C(F)(F)F)CC4)cc3n2CCC(N)=O)c1Cl` [Example 171], with 6 nM.

Take `Cn1c(Nc2c(Cl)ccc(CNC(=O)c3cccc[n+]3[O-])c2Cl)nc2cc(C(=O)NCCC(F)(F)F)c(N3CCC(C(F)(F)F)CC3)cc21` [Example 174]: the IC50 under setting [1] is greater than 100 nM.

Turning to `Cn1nc(C(=O)NCc2ccc(Cl)c(Nc3nc4cc(C(=O)NCCC(F)(F)F)c(N5CCC(C(F)(F)F)CC5)cc4n3C)c2Cl)cc1N` [Example 180], the IC50 under setting [1] is greater than 100 nM. In the case of `Cn1c(Nc2c(Cl)ccc(CNC(=O)c3cc(CO)ccn3)c2Cl)nc2cc(C(=O)NCCC(F)(F)F)c(N3CCC(C(F)(F)F)CC3)cc21` [Example 181], the IC50 under setting [1] was greater than 100 nM. Same read-out and setting: under `Cn1c(Nc2c(Cl)ccc(CNC(=O)c3n[nH]c4c3CCC4)c2Cl)nc2cc(C(=O)NCCC(F)(F)F)c(N3CCC(C(F)(F)F)CC3)cc21` [Example 183] stands greater than 100 nM; under `Cn1c(Nc2c(Cl)ccc(CNC(=O)c3cc[nH]n3)c2Cl)nc2cc(C(=O)NCCC(F)(F)F)c(N3CCC(C(F)(F)F)CC3)cc21` [Example 184], greater than 100 nM; under `Cn1c(Nc2c(Cl)ccc(CNC(=O)C3(C)CC3)c2Cl)nc2cc(C(=O)N[C@H]3CC[C@H](C(F)(F)F)CC3)c(N3CC4CC4C3)cc21` (stereo partly shown) [Example 187], 1 nM. For `Cn1c(Nc2c(Cl)ccc(CNC(=O)C3(C(F)(F)F)CC3)c2Cl)nc2cc(C(=O)N[C@H]3CC[C@H](C(F)(F)F)CC3)c(N3CC4CC4C3)cc21` (stereo partly shown) [Example 188], the IC50 under setting [1] turned out to be 1 nM. Same read-out and setting: under `Cn1c(Nc2c(Cl)ccc(CNC(=O)C3(O)CC3)c2Cl)nc2cc(C(=O)N[C@H]3CC[C@H](C(F)(F)F)CC3)c(N3CC4CC4C3)cc21` (stereo partly shown) [Example 189] stands 3 nM; under `Cn1c(Nc2c(Cl)ccc(CNC(=O)C(C)(C)O)c2Cl)nc2cc(C(=O)N[C@H]3CC[C@H](C(F)(F)F)CC3)c(N3CC4CC4C3)cc21` (stereo partly shown) [Example 190], 9 nM; under `Cn1c(Nc2c(Cl)ccc(CNC(=O)C(C)(C)F)c2Cl)nc2cc(C(=O)N[C@H]3CC[C@H](C(F)(F)F)CC3)c(N3CC4CC4C3)cc21` (stereo partly shown) [Example 191], 2 nM. Regarding `Cn1c(Nc2c(Cl)ccc(CNC(=O)[C@@](C)(O)C(F)(F)F)c2Cl)nc2cc(C(=O)N[C@H]3CC[C@H](C(F)(F)F)CC3)c(N3CC4CC4C3)cc21` (stereo partly shown) [Example 192], the IC50 under setting [1] came to 1 nM.

Take `Cn1c(Nc2c(Cl)ccc(CNC(=O)[C@@](C)(O)C(F)(F)F)c2Cl)nc2cc(C(=O)N[C@H]3CC[C@H](C(F)(F)F)CC3)c(N3CC4CC4C3)cc21` (stereo partly shown) [Example 193]: the IC50 under setting [1] turned out to be 2.5 nM. Take `Cn1c(Nc2c(Cl)ccc(CNC(=O)C(C)(C)CO)c2Cl)nc2cc(C(=O)N[C@H]3CC[C@H](C(F)(F)F)CC3)c(N3CC4CC4C3)cc21` (stereo partly shown) [Example 194]: the IC50 under setting [1] came out at 2.1 nM. The same measure, in the same setting: under `CN(C)c1ccnc(C(=O)NCc2ccc(Cl)c(Nc3nc4cc(C(=O)N[C@H]5CC[C@H](C(F)(F)F)CC5)c(N5CC6CC6C5)cc4n3C)c2Cl)c1` (stereo partly shown) [Example 195] stands 51 nM.
